Converted amounts (≈) assume the structure as drawn. “Also recorded” adds a separate entry of the source. Counter-ions that a name gives are not always drawn. Values belong to the compound of their own block, whether it stands above or below them.
What was measured:
[1] = Dynamic vapor sorption (DVS) analysis; type: physicochemical; conditions: for hygroscopic weight gain / water uptake (DVS): at 90% RH
Protocol: Dynamic Vapor Sorption (DVS) Analysis: Moisture sorption/desorption data was collected on a DVS Intrinsic PLUS (SMS, UK). The sample was placed into a tared sample chamber and automatically weighed. The sample was dried at 40° C. until the dm/dt was less than 0.002% and cooled to 25° C.

[2] = Solubility in bio-relevant media (FaSSIF, FeSSIF, SGF); type: physicochemical
Text: (§1) High Performance Liquid Chromatography (HPLC): a representative HPLC method is shown below, which can be used, for example, to analyze the purity, solubility, and stability of Compound 1 herein.

[3] = tested on: IL23; conditions: as tested in PCT/CN2021/140271; read-out: HEK blue IL23 IC50; cited from earlier work
[4] = Slurry bridging studies among Form I, Form III and Form VI under different water activities; type: physicochemical; conditions: versus Form I and Form VI
[5] = Solid stability; type: physicochemical
Text: as §1

[6] = Inter-conversion study among identified anhydrates in organic solvents; type: physicochemical; conditions: different organic solvents, RT to 60° C.
Protocol: Inter-conversion study among identified anhydrates (Form I, Form II, Form III, Form IV, Form V, Form VIII, Form X, Form XIII, Form XIV, Form XV) was conducted in different organic solvents between RT to 60° C.

[7] = Simulated Gastric Fluid (SGF), simulated gastric fluid, thermodynamic from solid, SGF
[8] = thermodynamic from solid, FaSSIF
[9] = thermodynamic from solid, FeSSIF

Structure (SMILES): [2H]C([2H])([2H])NC(=O)c1nnc(NC(=O)C2CC2)cc1Nc1ncc(Cl)cc1S(C)(=O)=O [Compound 1]
- IC50 [3]: 2.5 nM

Structure (SMILES): [2H]C([2H])([2H])NC(=O)c1nnc(NC(=O)C2CC2)cc1Nc1ncc(Cl)cc1S(C)(=O)=O [Form III]
- water activity up to which the form is more stable ([4]; 25° C.): not more than 0.56
- water activity up to which the form is more stable ([4]; 50° C.): ≤ 0.83
- Solid stability ([5]; 40° C./75% RH for 7 d): physically and chemically stable; also recorded: Chemically and physically stable
- Solid stability ([5]; 60° C. for 7 d): physically and chemically stable; also recorded: Chemically and physically stable
- Solid stability ([5]; 92.5% RH for 10 d): crystal form remained unchanged; also recorded: Physically stable
- DVS reversibility [1]: Reversible
- DVS Wt. gain % ([1]; 0-80% RH): 0.09%, 0-80% RH
- DVS Wt. gain % ([1]; 80-90% RH): 0.03%, 80-90% RH
- hygroscopic weight gain / water uptake (DVS) [1]: 0.13%
- relative stability among anhydrate forms [6]: most stable anhydrate form
- Solubility (in words) [2]: low and pH-dependent with higher solubility observed in Simulated Gastric Fluid (SGF)
- solubility at 0.5 h [2, 7]: 7.3 µg/mL (≈ 17.1 µM)
- solubility at 2 h [2, 7]: 8.2 µg/mL (≈ 19.2 µM)
- solubility at 24 h [2, 7]: 5.7 µg/mL (≈ 13.3 µM)
- solubility at 0.5 h [2, 8]: 1.1 µg/mL (≈ 2.57 µM)
- solubility at 2 h [2, 8]: 1.1 µg/mL (≈ 2.57 µM)
- solubility at 24 h [2, 8]: 1.3 µg/mL (≈ 3.04 µM)
- solubility at 0.5 h [2, 9]: 2.6 µg/mL (≈ 6.08 µM)
- solubility at 2 h [2, 9]: 3.4 µg/mL (≈ 7.95 µM)
- solubility at 24 h [2, 9]: 4.1 µg/mL (≈ 9.58 µM)

Structure (SMILES): [2H]C([2H])([2H])NC(=O)c1nnc(NC(=O)C2CC2)cc1Nc1ncc(Cl)cc1S(C)(=O)=O [choline salt Form K]
- hygroscopic weight gain / water uptake (DVS) [1]: about 23%

Results, then the compound that gave them:

- hygroscopic weight gain / water uptake (DVS) [1]: about 10%
Structure (SMILES): [2H]C([2H])([2H])NC(=O)c1nnc(NC(=O)C2CC2)cc1Nc1ncc(Cl)cc1S(C)(=O)=O [sulfate Form A]

- hygroscopic weight gain / water uptake (DVS) [1]: about 1.0%
- solubility ([2]; bio-relevant media (FaSSIF, FeSSIF, SGF), fassgf or other biorelevant, thermodynamic from solid): < 20 µg/mL
Structure (SMILES): [2H]C([2H])([2H])NC(=O)c1nnc(NC(=O)C2CC2)cc1Nc1ncc(Cl)cc1S(C)(=O)=O [sulfate Form B]

- hygroscopic weight gain / water uptake (DVS) [1]: about 0.92%
Structure (SMILES): [2H]C([2H])([2H])NC(=O)c1nnc(NC(=O)C2CC2)cc1Nc1ncc(Cl)cc1S(C)(=O)=O [phosphate Form E]

— patent US12655123B2, “Heteroaryl compounds, solid forms, preparation methods and uses thereof” (InventisBio Co., Ltd., priority 2022, dated 2026)
